Experimental data from US10040781B2, “Tank-binding kinase inhibitor compounds” (Gilead Sciences, Inc., priority 2014, dated 2018).

What was measured:
IKKε = IKKε (Homo sapiens (Human), UniProt Q14164); assay: IKKε TR-FRET enzymatic assay; type: biochemical; conditions: TR-FRET, 2×Km ATP; geometric mean of minimum four determinations; read-out: IKKe IC50
hJAK2 = hJAK2 (Homo sapiens (Human), UniProt O60674); assay: hJAK2 LANCE TR-FRET enzymatic assay; type: biochemical; conditions: read-out: JAK2 IC50
Sequence of hJAK2 (O60674 whole entry): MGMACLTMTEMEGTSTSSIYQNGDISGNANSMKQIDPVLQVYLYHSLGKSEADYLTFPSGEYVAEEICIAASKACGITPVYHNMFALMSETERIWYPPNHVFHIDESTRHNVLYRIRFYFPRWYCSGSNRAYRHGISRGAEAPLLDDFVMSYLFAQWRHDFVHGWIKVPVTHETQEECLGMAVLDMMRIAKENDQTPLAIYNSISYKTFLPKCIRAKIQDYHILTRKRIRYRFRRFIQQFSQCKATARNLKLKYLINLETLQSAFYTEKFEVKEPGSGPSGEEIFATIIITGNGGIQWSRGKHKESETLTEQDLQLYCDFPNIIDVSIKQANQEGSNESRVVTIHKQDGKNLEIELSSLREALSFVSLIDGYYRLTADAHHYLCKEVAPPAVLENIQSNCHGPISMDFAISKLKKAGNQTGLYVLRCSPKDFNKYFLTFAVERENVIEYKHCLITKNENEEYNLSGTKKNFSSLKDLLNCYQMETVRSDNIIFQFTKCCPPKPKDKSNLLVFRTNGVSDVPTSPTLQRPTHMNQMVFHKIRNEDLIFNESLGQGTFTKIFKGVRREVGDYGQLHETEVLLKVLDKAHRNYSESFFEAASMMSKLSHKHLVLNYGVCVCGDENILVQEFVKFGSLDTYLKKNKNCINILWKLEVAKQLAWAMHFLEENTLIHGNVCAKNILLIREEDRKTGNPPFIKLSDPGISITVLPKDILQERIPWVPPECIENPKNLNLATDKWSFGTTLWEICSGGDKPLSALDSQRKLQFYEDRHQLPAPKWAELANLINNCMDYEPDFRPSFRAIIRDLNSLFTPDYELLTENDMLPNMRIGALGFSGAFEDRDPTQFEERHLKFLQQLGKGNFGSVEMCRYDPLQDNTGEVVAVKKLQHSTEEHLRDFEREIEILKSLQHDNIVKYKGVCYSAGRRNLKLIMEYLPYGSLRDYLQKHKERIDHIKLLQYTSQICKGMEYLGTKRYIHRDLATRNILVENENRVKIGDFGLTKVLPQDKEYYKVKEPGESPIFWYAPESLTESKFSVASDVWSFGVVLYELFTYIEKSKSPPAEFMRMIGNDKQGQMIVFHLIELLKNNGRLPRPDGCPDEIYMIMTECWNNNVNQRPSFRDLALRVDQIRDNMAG

TBK1 = TBK1 (Homo sapiens (Human), UniProt Q9UHD2); assay: TBK1 TR-FRET enzymatic assay;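 note: phosphorylation of a biotinylated Ser/Thr peptide by purified full-length recombinant TBK1, read by TR-FRET after 240 min at 25 °C, IC50 is the geometric mean of at least four runs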
Sequence of TBK1 (Q9UHD2 whole entry): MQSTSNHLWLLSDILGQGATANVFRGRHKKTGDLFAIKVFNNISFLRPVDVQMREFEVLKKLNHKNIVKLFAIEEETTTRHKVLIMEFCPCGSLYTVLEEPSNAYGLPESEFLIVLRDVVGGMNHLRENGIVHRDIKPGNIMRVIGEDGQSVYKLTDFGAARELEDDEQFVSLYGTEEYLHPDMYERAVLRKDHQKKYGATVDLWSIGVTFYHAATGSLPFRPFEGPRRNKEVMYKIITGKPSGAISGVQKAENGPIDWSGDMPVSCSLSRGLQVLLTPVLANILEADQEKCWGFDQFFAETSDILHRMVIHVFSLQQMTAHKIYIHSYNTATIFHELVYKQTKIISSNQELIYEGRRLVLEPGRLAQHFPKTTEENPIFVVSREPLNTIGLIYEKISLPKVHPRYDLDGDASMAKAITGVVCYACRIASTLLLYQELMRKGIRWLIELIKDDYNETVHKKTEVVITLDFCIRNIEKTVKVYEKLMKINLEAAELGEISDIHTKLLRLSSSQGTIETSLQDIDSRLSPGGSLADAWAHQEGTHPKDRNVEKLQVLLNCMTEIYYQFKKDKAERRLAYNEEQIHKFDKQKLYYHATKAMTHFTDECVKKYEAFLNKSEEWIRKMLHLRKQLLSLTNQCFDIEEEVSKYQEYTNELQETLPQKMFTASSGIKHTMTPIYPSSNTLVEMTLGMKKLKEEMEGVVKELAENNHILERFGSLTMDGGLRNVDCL

Sequence of IKKε (Q14164 whole entry): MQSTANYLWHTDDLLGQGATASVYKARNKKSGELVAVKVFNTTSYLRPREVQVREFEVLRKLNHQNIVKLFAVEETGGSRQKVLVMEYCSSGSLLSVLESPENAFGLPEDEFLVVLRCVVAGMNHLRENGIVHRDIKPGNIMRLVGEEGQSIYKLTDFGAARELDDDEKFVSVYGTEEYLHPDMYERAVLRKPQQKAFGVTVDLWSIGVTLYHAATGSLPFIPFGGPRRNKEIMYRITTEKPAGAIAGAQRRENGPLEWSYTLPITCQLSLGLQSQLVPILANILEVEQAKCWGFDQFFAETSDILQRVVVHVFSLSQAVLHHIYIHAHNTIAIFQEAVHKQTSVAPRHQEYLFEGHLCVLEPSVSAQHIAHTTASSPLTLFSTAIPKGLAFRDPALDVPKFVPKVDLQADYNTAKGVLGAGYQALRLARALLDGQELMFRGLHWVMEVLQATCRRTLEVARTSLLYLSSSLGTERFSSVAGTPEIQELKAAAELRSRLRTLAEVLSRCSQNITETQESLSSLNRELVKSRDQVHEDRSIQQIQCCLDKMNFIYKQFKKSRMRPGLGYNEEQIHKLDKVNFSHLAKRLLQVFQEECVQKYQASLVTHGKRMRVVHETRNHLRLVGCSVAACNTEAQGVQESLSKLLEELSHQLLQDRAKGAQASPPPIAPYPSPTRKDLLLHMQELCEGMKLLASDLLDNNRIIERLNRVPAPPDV

Structure (SMILES) | IC50 (IKKε) [nM] | IC50 (hJAK2) [nM] | IC50 (TBK1) [nM]
COc1cc(Nc2ncnc(-c3ccc(O[C@H]4CCN(C(=O)[C@@H]5CCC(=O)N5)C[C@H]4F)c(C#N)c3)n2)ccc1N1CCN(C2COC2)CC1 [Example 544, 2-(((3R,4S)-3-fluoro-1-((S)-5-oxopyrrolidine-2-carbonyl)piperidin-4-yl)oxy)-5-(4-((3-methoxy-4-(4-(oxetan-3-yl)piperazin-1-yl)phenyl)amino)-1,3,5-triazin-2-yl)benzonitrile] | 1 | 44 | 2
N#Cc1cc(-c2ncnc(Nc3ccc(N4CCN(C5COC5)CC4)cc3)n2)ccc1O[C@H]1CCN(C(=O)[C@@H]2CNC(=O)C2)C[C@H]1F [Example 548, 2-(((3R,4S)-3-fluoro-1-((S)-5-oxopyrrolidine-3-carbonyl)piperidin-4-yl)oxy)-5-(4-((4-(4-(oxetan-3-yl)piperazin-1-yl)phenyl)amino)-1,3,5-triazin-2-yl)benzonitrile] | 96 | 353 | 21
CS(=O)(=O)CC(=O)N1CC[C@H](Oc2ccc(-c3ncnc(Nc4ccc(N5CCN(C6COC6)CC5)cc4)n3)cc2C#N)[C@H](F)C1 [Example 549, 2-(((3R,4S)-3-fluoro-1-(2-(methylsulfonyl)acetyl)piperidin-4-yl)oxy)-5-(4-((4-(4-(oxetan-3-yl)piperazin-1-yl)phenyl)amino)-1,3,5-triazin-2-yl)benzonitrile] | 11 | 179 | 4
N#Cc1cc(-c2ncnc(Nc3ccc(N4CCN(C5COC5)CC4)cc3)n2)ccc1O[C@H]1CCN(C(=O)C2CC(O)C2)C[C@H]1F (stereo partly drawn) [Example 550, 2-(((3R,4S)-3-fluoro-1-(3-hydroxycyclobutanecarbonyl)piperidin-4-yl)oxy)-5-(4-((4-(4-(oxetan-3-yl)piperazin-1-yl)phenyl)amino)-1,3,5-triazin-2-yl)benzonitrile] | 36 | 750 | 11
N#Cc1cc(-c2ncnc(Nc3ccc(N4CCN(C5COC5)CC4)cc3)n2)ccc1O[C@H]1CCN(C(=O)C2CCNC2=O)C[C@H]1F (stereo partly drawn) [Example 551, 2-(((3R,4S)-3-fluoro-1-(2-oxopyrrolidine-3-carbonyl)piperidin-4-yl)oxy)-5-(4-((4-(4-(oxetan-3-yl)piperazin-1-yl)phenyl)amino)-1,3,5-triazin-2-yl)benzonitrile] | 92 | 799 | 16
N#Cc1cc(-c2ncnc(Nc3ccc(N4CCN(C5COC5)CC4)cc3)n2)ccc1O[C@H]1CCN(C(=O)[C@H]2CNC(=O)C2)C[C@H]1F [Example 552, 2-(((3R,4S)-3-fluoro-1-((R)-5-oxopyrrolidine-3-carbonyl)piperidin-4-yl)oxy)-5-(4-((4-(4-(oxetan-3-yl)piperazin-1-yl)phenyl)amino)-1,3,5-triazin-2-yl)benzonitrile] | 174 | 562 | 28
CC(C)(O)CC(=O)N1CC[C@H](Oc2ccc(-c3ncnc(Nc4ccc(N5CCN(C6COC6)CC5)cc4)n3)cc2C#N)[C@H](F)C1 [Example 553, 2-(((3R,4S)-3-fluoro-1-(3-hydroxy-3-methylbutanoyl)piperidin-4-yl)oxy)-5-(4-((4-(4-(oxetan-3-yl)piperazin-1-yl)phenyl)amino)-1,3,5-triazin-2-yl)benzonitrile] | 51 | ≥ 1000 | 38
COCC(O)C(=O)N1CC[C@H](Oc2ccc(-c3ncnc(Nc4ccc(N5CCN(C6COC6)CC5)cc4)n3)cc2C#N)[C@H](F)C1 (stereo partly drawn) [Example 557, 2-(((3R,4S)-3-fluoro-1-(2-hydroxy-3-methoxypropanoyl)piperidin-4-yl)oxy)-5-(4-((4-(4-(oxetan-3-yl)piperazin-1-yl)phenyl)amino)-1,3,5-triazin-2-yl)benzonitrile] | 4 | 917 | 6
N#Cc1cc(-c2ncnc(Nc3ccc(N4CCN(C5COC5)CC4)cc3)n2)ccc1O[C@H]1CCN(C(=O)c2cnc(N)[nH]2)C[C@H]1F [Example 559, 2-(((3R,4S)-1-(2-amino-1H-imidazole-5-carbonyl)-3-fluoropiperidin-4-yl)oxy)-5-(4-((4-(4-(oxetan-3-yl)piperazin-1-yl)phenyl)amino)-1,3,5-triazin-2-yl)benzonitrile] | 2 | 83 | 5
COc1cc(Nc2ncnc(-c3ccc(O[C@H]4CCN(C(=O)CCO)C[C@H]4F)c(C#N)c3)n2)ccc1N1CCN(C2COC2)CC1 [Example 562, 2-(((3R,4S)-3-fluoro-1-(3-hydroxypropanoyl)piperidin-4-yl)oxy)-5-(4-((3-methoxy-4-(4-(oxetan-3-yl)piperazin-1-yl)phenyl)amino)-1,3,5-triazin-2-yl)benzonitrile] | 6 | 110 | 3

More lines, in order of falling IC50 (IKKε), values ahead:

IC50 (IKKε) [nM] | IC50 (hJAK2) [nM] | IC50 (TBK1) [nM] | Structure (SMILES)
126 | ≥ 1000 | 90 | C[C@H](O)C(=O)N1CC[C@H](Oc2ccc(-c3ncnc(Nc4cnn(C)c4CO)n3)cc2C#N)[C@H](F)C1 [Example 565, 2-(((3R,4S)-3-fluoro-1-((S)-2-hydroxypropanoyl)piperidin-4-yl)oxy)-5-(4-((5-(hydroxymethyl)-1-methyl-1H-pyrazol-4-yl)amino)-1,3,5-triazin-2-yl)benzonitrile]
109 | ≥ 1000 | 92 | C[C@H](O)C(=O)N1CC[C@H](Oc2ccc(-c3ncnc(Nc4cn(C)nc4CO)n3)cc2C#N)[C@H](F)C1 [Example 564, 2-(((3R,4S)-3-fluoro-1-((S)-2-hydroxyproanoyl)piperidin-4-yl)oxy)-5-(4-((3-(hydroxymethyl)-1-methyl-1H-pyrazol-4-yl)amino)-1,3,5-triazin-2-yl)benzonitrile]
36 | ≥ 1000 | 11 | CO[C@@H](C)C(=O)N1CC[C@H](Oc2ccc(-c3ncnc(Nc4ccc(N5CCN(C6COC6)CC5)cc4)n3)cc2C#N)[C@H](F)C1 [Example 547, 2-(((3R,4S)-3-fluoro-1-((S)-2-methoxypropanoyl)piperidin-4-yl)oxy)-5-(4-((4-(4-(oxetan-3-yl)piperazin-1-yl)phenyl)amino)-1,3,5-triazin-2-yl)benzonitrile]
5 | ≥ 1000 | 3 | N#Cc1cc(-c2ncnc(Nc3ccc(N4CCOCC4)cc3F)n2)ccc1O[C@H]1CCN(C(=O)[C@@H](O)CO)C[C@H]1F [Example 556, 2-(((3R,4S)-1-((S)-2,3-dihydroxypropanoyl)-3-fluoropiperidin-4-yl)oxy)-5-(4-((2-fluoro-4-morpholinophenyl)amino)-1,3,5-triazin-2-yl)benzonitrile]
4 | 363 | 6 | C[C@@H]1CN(c2ccc(Nc3ncnc(-c4ccc(O[C@H]5CCN(C(=O)[C@@H]6CCC(=O)N6)C[C@H]5F)c(C#N)c4)n3)cc2)CCN1C1COC1 [Example 542, 2-(((3R,4S)-3-fluoro-1-((S)-5-oxopyrrolidine-2-carbonyl)piperidin-4-yl)oxy)-5-(4-((4-((R)-3-methyl-4-(oxetan-3-yl)piperazin-1-yl)phenyl)amino)-1,3,5-triazin-2-yl)benzonitrile]
4 | ≥ 1000 | 5 | C[C@H](O)C(=O)N1CC[C@H](Oc2ccc(-c3ncnc(Nc4ccc(-n5ccnc5)cc4)n3)cc2C#N)[C@H](F)C1 [Example 554, 5-(4-((4-(1H-imidazol-1-yl)phenyl)amino)-1,3,5-triazin-2-yl)-2-(((3R,4S)-3-fluoro-1-((S)-2-hydroxypropanoyl)piperidin-4-yl)oxy)benzonitrile]
3 | ≥ 1000 | 5 | Cc1ncsc1Nc1ncnc(-c2ccc(O[C@H]3CCN(C(=O)CO)C[C@H]3F)c(C#N)c2)n1 [Example 563, 2-(((3R,4S)-3-fluoro-1-(2-hydroxyacetyl)piperidin-4-yl)oxy)-5-(4-((4-methylthiazol-5-yl)amino)-1,3,5-triazin-2-yl)benzonitrile]
2 | 492 | 2 | COCC(=O)N1CC[C@H](Oc2ccc(-c3ncnc(Nc4ccc(N5CCN(C6COC6)CC5)cc4)n3)cc2C#N)[C@H](F)C1 [Example 546, 2-(((3R,4S)-3-fluoro-1-(2-methoxyacetyl)piperidin-4-yl)oxy)-5-(4-((4-(4-(oxetan-3-yl)piperazin-1-yl)phenyl)amino)-1,3,5-triazin-2-yl)benzonitrile]
1 | 659 | 3 | C[C@H](O)C(=O)N1CC[C@H](Oc2ccc(-c3ncnc(Nc4ccc5c(c4)CNC5)n3)cc2C#N)[C@H](F)C1 [Example 545, 2-(((3R,4S)-3-fluoro-1-((S)-2-hydroxypropanoyl)piperidin-4-yl)oxy)-5-(4-(isoindolin-5-ylamino)-1,3,5-triazin-2-yl)benzonitrile]
1 | 732 | 4 | N#Cc1cc(-c2ncnc(Nc3ccc(N4CCOCC4)cc3)n2)ccc1O[C@H]1CCN(C(=O)[C@@H](O)CO)C[C@H]1F [Example 555, 2-(((3R,4S)-1-((S)-2,3-dihydroxypropanoyl)-3-fluoropiperidin-4-yl)oxy)-5-(4-((4-morpholinophenyl)amino)-1,3,5-triazin-2-yl)benzonitrile]
1 | 18 | 2 | COc1cc(Nc2ncnc(-c3ccc(O[C@H]4CCN(C(=O)CO)CC4(F)F)c(C#N)c3)n2)ccc1N1CCN(C2COC2)CC1 [Example 560, (S)-2-((3,3-difluoro-1-(2-hydroxyacetyl)piperidin-4-yl)oxy)-5-(4-((3-methoxy-4-(4-(oxetan-3-yl)piperazin-1-yl)phenyl)amino)-1,3,5-triazin-2-yl)benzonitrile]
1 | 68 | 2 | COc1cc(Nc2ncnc(-c3ccc(O[C@H]4CCN(C(=O)[C@H](C)O)CC4(F)F)c(C#N)c3)n2)ccc1N1CCN(C2COC2)CC1 [Example 561, 2-(((S)-3,3-difluoro-1-((S)-2-hydroxypropanoyl)piperidin-4-yl)oxy)-5-(4-((3-methoxy-4-(4-(oxetan-3-yl)piperazin-1-yl)phenyl)amino)-1,3,5-triazin-2-yl)benzonitrile]
